This experiment concerns the target T1, p38α (Homo sapiens, UniProt Q16539).
T1 construct: GST-tagged fusion protein corresponding to full-length human p38α; purchased Upstate 14-251; host or cells: E. coli
The experiment in a line: Inhibition of p38α enzyme activity (IMAP fluorescence polarisation kinase assay). Conditions: at 1 μM compound; ATP 20 μM; 2 h at RT. In kind it is biochemical. Here is the method:
Inhibition of p38α Enzyme Activity:
Compound stocks in 100% DMSO are first diluted in DMSO to a concentration of 1×10^−3 up to 3.2×10^−8 M and then further diluted in kinase assay buffer (10 mM Tris-HCl, pH 7.2, 10 mM MgCl2, 0.01% tween 20, 0.05% NaN3, 1 mM dithiothreitol) to a concentration range of 4×10^−5 up to 1.3×10^−9 M. Of each compound solution 5 μL is transferred into a 384-wells black Optiplate (Packard, 6007279), followed by the addition of 5 μL of ATP (Boehringer, 519987), 5 μL of Fluorescein-labeled EGFR (Epidermal Growth Factor Receptor) peptide substrate and 5 μL of active p38 cc kinase (GST-tagged fusion protein corresponding to full-length human p38α; expressed in E. coli by Upstate, 14-251), all diluted in kinase assay buffer (see final concentrations in Table 1). The mixture is incubated for 2 h at room temperature (RT). The reaction is stopped by the addition of 60 μL of IMAP binding reagent, which has been diluted 400-fold in IMAP binding buffer (stock concentration 5 times diluted in Milli Q). After incubation for 30 min at RT, FP is measured on an Analyst™ multimode fluorescence plate reader (Molecular Devices) at excitation wavelength of 485 nm and emission wavelength of 530 nm (1 sec/well).
Data handling is performed as follows: percentage effects are calculated based on no-p38-enzyme-addition as the maximum inhibitory effect and with p38 enzyme addition as the minimum inhibitory effect. In each experiment, individual compound concentrations are tested in duplicate and percentage effect is calculated for each concentration.

Some results are limits rather than exact numbers.

T1 sequence (Q16539 whole entry, the tested form may be a part): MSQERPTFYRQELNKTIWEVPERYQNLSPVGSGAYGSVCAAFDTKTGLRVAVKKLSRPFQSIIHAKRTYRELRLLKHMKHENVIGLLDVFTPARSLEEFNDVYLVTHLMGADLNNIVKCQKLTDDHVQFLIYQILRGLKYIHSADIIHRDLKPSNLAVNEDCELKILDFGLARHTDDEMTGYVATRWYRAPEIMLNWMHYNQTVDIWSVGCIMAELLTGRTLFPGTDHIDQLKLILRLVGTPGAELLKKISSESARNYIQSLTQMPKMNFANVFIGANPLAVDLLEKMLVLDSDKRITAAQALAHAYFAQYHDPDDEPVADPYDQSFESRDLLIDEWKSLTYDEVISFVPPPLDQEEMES

Consider `Cn1c(C(=O)NCCN2CCOCC2)cc2nc(-c3ccc(F)cc3)c(-c3ccncc3)c(-c3ccc(F)cc3)c21` [Example 30, 5,7-Bis-(4-fluoro-phenyl)-1-methyl-6-pyridin-4-yl-1H-pyrrolo[3,2-b]pyridine-2-carboxylic acid (2-morpholin-4-yl-ethyl)-amide], for which the inhibition at 1 µM was more than 50%.
For `COCCNCc1cc2nc(-c3ccc(F)cc3)c(-c3ccncc3)c(-c3ccc(F)cc3)c2n1C` [Example 32, [5,7-Bis-(4-fluoro-phenyl)-1-methyl-6-pyridin-4-yl-1H-pyrrolo[3,2-b]pyridin-2-ylmethyl]-(2-methoxy-ethyl)-amine] the value was more than 50%.
For `Cn1c(C(N)=O)cc2nc(-c3ccc(F)cc3)c(-c3ccncc3)c(-c3ccc(F)cc3)c21` [Example 12, 5,7-Bis(4-fluorophenyl)-1-methyl-6-(4-pyridyl)pyrrolo[3,2-b]pyridine-2-carboxamide] the value was more than 50%.
In the case of `COC(=O)c1cc2nc(-c3ccc(F)cc3)c(-c3ccncc3)c(-c3ccc(F)cc3)c2n1C` [Example 3, Methyl 5,7-bis(4-fluorophenyl)-1-methyl-6-(4-pyridyl)pyrrolo[3,2-b]pyridine-2-carboxylate] it was more than 50%; in that of `Cn1c(CO)nc2nc(-c3ccc(F)cc3)c(-c3ccncc3)c(-c3ccc(F)cc3)c21` [Example 7, [5,7-Bis(4-fluorophenyl)-1-methyl-6-(4-pyridyl)imidazo[4,5-b]pyridin-2-yl]methanol], more than 50%.
`Cc1noc2nc(-c3ccc(F)cc3)c(-c3ccnc(N[C@@H](C)c4ccccc4)n3)cc12` [Example 42, (S)-{4-[6-(4-Fluoro-phenyl)-3-methyl-isoxazolo[5,4-b]pyridin-5-yl]-pyrimidin-2-yl}-(1-phenyl-ethyl)-amine] had an inhibition at 1 µM of more than 50%.
In the case of `COCCNC(=O)c1cc2nc(-c3ccc(F)cc3)c(-c3ccncc3)c(-c3ccc(F)cc3)c2n1C` [Example 28, 5,7-Bis-(4-fluoro-phenyl)-1-methyl-6-pyridin-4-yl-1H-pyrrolo[3,2-b]pyridine-2-carboxylic acid (2-methoxy-ethyl)-amide] it was more than 50%; in that of `Cn1c(C(C)(C)O)cc2nc(-c3ccc(F)cc3)c(-c3ccncc3)c(-c3ccc(F)cc3)c21` [Example 20, 2-[5,7-Bis(4-fluorophenyl)-1-methyl-6-(4-pyridyl)pyrrolo[3,2-b]pyridin-2-yl]propan-2-ol], more than 50%; in that of `CC(C)(O)c1cc2c(-c3ccc(F)cc3)c(-c3ccncc3)c(-c3ccc(F)cc3)nc2o1` [Example 16, 2-[4,6-Bis-(4-fluorophenyl)-5-(4-pyridyl)furo[2,3-b]pyridin-2-yl]propan-2-ol], more than 50%.
On to `Cn1cnc2nc(-c3ccc(F)cc3)c(-c3ccncc3)c(-c3ccc(F)cc3)c21` [Example 10, 5,7-Bis(4-fluorophenyl)-1-methyl-6-(4-pyridyl)imidazo[4,5-b]pyridine], for which the inhibition at 1 µM was more than 50%.
In the case of `Cn1ccc2nc(-c3ccc(F)cc3)c(-c3ccncc3)c(-c3ccc(F)cc3)c21` [Example 37, 5,7-Bis-(4-fluoro-phenyl)-1-methyl-6-pyridin-4-yl-1H-pyrrolo[3,2-b]pyridine] it was more than 50%; in that of `Cc1noc2nc(-c3ccc(F)cc3)c(-c3ccnc(NCC4CC4)n3)cc12` [Example 40, Cyclopropylmethyl-{4-[6-(4-fluoro-phenyl)-3-methyl-isoxazolo[5,4-b]pyridin-5-yl]-pyrimidin-2-yl}-amine], more than 50%.
In turn, `O=C(NCCO)c1cc2c(-c3ccc(F)cc3)c(-c3ccncc3)c(-c3ccc(F)cc3)nc2o1` [Example 27, 4,6-Bis-(4-fluoro-phenyl)-5-pyridin-4-yl-furo[2,3-b]pyridine-2-carboxylic acid (2-hydroxy-ethyl)-amide] yielded an inhibition at 1 µM of more than 50%.
In the case of `COCCCNc1nccc(-c2cc3c(C)nsc3nc2-c2ccc(F)cc2)n1` [Example 44, {4-[6-(4-Fluoro-phenyl)-3-methyl-isothiazolo[5,4-b]pyridin-5-yl]-pyrimidin-2-yl}-(3-methoxy-propyl)-amine] it was more than 50%; in that of `COC(=O)c1n[nH]c2c(-c3ccc(F)cc3)c(-c3ccncc3)c(-c3ccc(F)cc3)nc12` [Example 39, 5,7-Bis-(4-fluoro-phenyl)-6-pyridin-4-yl-1H-pyrazolo[4,3-b]pyridine-3-carboxylic acid methyl ester], more than 50%; in that of `CCCNC(=O)c1cc2nc(-c3ccc(F)cc3)c(-c3ccncc3)c(-c3ccc(F)cc3)c2n1C` [Example 29, 5,7-Bis-(4-fluoro-phenyl)-1-methyl-6-pyridin-4-yl-1H-pyrrolo[3,2-b]pyridine-2-carboxylic acid propylamide], more than 50%.
Turning to `COc1ccc(-c2nc3cc[nH]c3cc2-c2ccnc(N[C@@H](C)c3ccccc3)n2)cc1` [Example 47, (S)-{4-[5-(4-Methoxy-phenyl)-1H-pyrrolo[3,2-b]pyridin-6-yl]-pyrimidin-2-yl}-(1-phenyl-ethyl)-amine], the inhibition at 1 µM was more than 50%.
For `COC(=O)c1cc2c(-c3ccc(F)cc3)c(-c3ccncc3)c(-c3ccc(F)cc3)nc2o1` [Example 2, Methyl 4,6-bis(4-fluorophenyl)-5-(4-pyridyl)furo[2,3-b]pyridine-2-carboxylate] the value was more than 50%; for `O=C(NCCO)c1n[nH]c2c(-c3ccc(F)cc3)c(-c3ccncc3)c(-c3ccc(F)cc3)nc12` [Example 54, 5,7-Bis-(4-fluoro-phenyl)-6-pyridin-4-yl-1H-pyrazolo[4,3-b]pyridine-3-carboxylic acid (2-hydroxy-ethyl)-amide], more than 50%.
As to `Cn1c(CO)cc2nc(-c3ccc(F)cc3)c(-c3ccncc3)c(-c3ccc(F)cc3)c21` [Example 6, [5,7-Bis(4-fluorophenyl)-1-methyl-6-(4-pyridyl)pyrrolo[3,2-b]pyridin-2-yl]methanol], the inhibition at 1 µM is more than 50%.
In the case of `Cc1nc2cc(-c3ccnc(N[C@@H](C)c4ccccc4)n3)c(-c3ccc(F)cc3)nc2s1` [Example 56, (S)-{4-[5-(4-Fluoro-phenyl)-2-methyl-thiazolo[5,4-b]pyridin-6-yl]-pyrimidin-2-yl}-(1-phenyl-ethyl)-amine] it was more than 50%; in that of `CCN(CC(=O)OC)Cc1cc2nc(-c3ccc(F)cc3)c(-c3ccncc3)c(-c3ccc(F)cc3)c2n1C` [Example 35, {[5,7-Bis-(4-fluoro-phenyl)-1-methyl-6-pyridin-4-yl-1H-pyrrolo[3,2-b]pyridin-2-ylmethyl]-N-ethyl-amino}-acetic acid methyl ester], more than 50%.
In the case of `Cn1c(C(=O)NCCO)cc2nc(-c3ccc(F)cc3)c(-c3ccncc3)c(-c3ccc(F)cc3)c21` [Example 13, 5,7-Bis(4-fluorophenyl)-N-(2-hydroxyethyl)-1-methyl-6-(4-pyridyl)pyrrolo[3,2-b]pyridine-2-carboxamide] it was more than 50%; in that of `Cc1nsc2nc(-c3ccc(F)cc3)c(-c3ccnc(N[C@@H](C)c4ccccc4)n3)cc12` [Example 45, (S)-{4-[6-(4-Fluoro-phenyl)-3-methyl-isothiazolo[5,4-b]pyridin-5-yl]-pyrimidin-2-yl}-(1-phenyl-ethyl)-amine], more than 50%.
As for `CC(=O)c1cc2nc(-c3ccc(F)cc3)c(-c3ccncc3)c(-c3ccc(F)cc3)c2n1C` [Example 21, 1-[5,7-Bis(4-fluorophenyl)-1-methyl-6-(4-pyridyl)pyrrolo[3,2-b]pyridin-2-yl]ethanone], the inhibition at 1 µM was more than 50%.
For `Fc1ccc(-c2nc3cn[nH]c3c(-c3ccc(F)cc3)c2-c2ccncc2)cc1` [Example 53, 5,7-Bis-(4-fluoro-phenyl)-6-pyridin-4-yl-1H-pyrazolo[4,3-b]pyridine] the value was more than 50%; for `Cn1c(CNCC2CC2)cc2nc(-c3ccc(F)cc3)c(-c3ccncc3)c(-c3ccc(F)cc3)c21` [Example 33, [5,7-Bis-(4-fluoro-phenyl)-1-methyl-6-pyridin-4-yl-1H-pyrrolo[3,2-b]pyridin-2-ylmethyl]-cyclopropylmethyl-amine], more than 50%.
For `Cn1c(C(C)(C)O)nc2nc(-c3ccc(F)cc3)c(-c3ccncc3)c(-c3ccc(F)cc3)c21` [Example 18, 2-[5,7-Bis(4-fluorophenyl)-1-methyl-6-(4-pyridyl)imidazo[4,5-b]pyridin-2-yl]propan-2-ol] the value was more than 50%.
For `COC(=O)CNCc1cc2nc(-c3ccc(F)cc3)c(-c3ccncc3)c(-c3ccc(F)cc3)c2n1C` [Example 34, {[5,7-Bis-(4-fluoro-phenyl)-1-methyl-6-pyridin-4-yl-1H-pyrrolo[3,2-b]pyridin-2-ylmethyl]-amino}-acetic acid methyl ester] the value was more than 50%.

Source of the values: patent publication US20080318977A1, “Condensed Pyridines as Kinase Inhibitors” (Palau Pharma, S.A., priority 2004, published 2008).
